From paper PMC10287695, “Non-covalent inhibitors of thioredoxin glutathione reductase with schistosomicidal activity in vivo” (Nature Communications, 2023)
Values joined by “and” are separate entries in the source; they are usually repeats but may differ in a detail not shown here. Identical values can stand only once. Like-named read-outs stand apart in the source and are kept apart here.

Tests used:
S. mansoni TGR = biological target: T1, S. mansoni TGR (Schistosoma mansoni, UniProt Q962Y6); assay: S. mansoni TGR enzyme inhibition (DTNB reduction); assay type: biochemical; conditions: for IC50: 15 min preincubation (enzyme + 100 µM NADPH + compound); for inhibition at 15 µM: compound 15 µM; for inhibition at 30 µM: compound 30 µM
T1 construct: made in house
T1 sequence (Q962Y6 1-598): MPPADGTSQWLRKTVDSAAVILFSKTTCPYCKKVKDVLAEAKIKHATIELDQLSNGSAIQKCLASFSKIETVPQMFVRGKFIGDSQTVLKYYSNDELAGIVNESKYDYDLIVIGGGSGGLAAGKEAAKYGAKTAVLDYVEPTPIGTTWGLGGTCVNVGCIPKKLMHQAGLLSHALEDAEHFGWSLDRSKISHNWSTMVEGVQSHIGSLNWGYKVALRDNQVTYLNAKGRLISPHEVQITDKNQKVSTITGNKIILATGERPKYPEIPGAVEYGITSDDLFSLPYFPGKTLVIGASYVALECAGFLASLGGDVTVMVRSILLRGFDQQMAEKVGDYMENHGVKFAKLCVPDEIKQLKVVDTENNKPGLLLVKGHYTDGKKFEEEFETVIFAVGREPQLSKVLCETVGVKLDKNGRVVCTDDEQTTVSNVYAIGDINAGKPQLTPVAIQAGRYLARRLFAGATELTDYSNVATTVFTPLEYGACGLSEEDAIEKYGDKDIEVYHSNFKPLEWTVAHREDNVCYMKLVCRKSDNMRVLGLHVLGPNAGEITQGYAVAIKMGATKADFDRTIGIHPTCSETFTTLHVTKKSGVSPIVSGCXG

S. mansoni adult worms = assay: GSH/GSSG ratio in ex vivo adult worms; assay type: cell-based; conditions: for Decrease (%) in GSH/GSSG ratio: adult worms, 3 h exposure to compounds at 50 μM
Description: We assessed GSH/GSSG levels experimentally by treating S. mansoni adult worms with 50 µM of compounds, or respective controls 5 µM Auranofin, 50 µM PZQ or 50 µM MZM and 0.01% DMSO for 3 h. Worm homogenate was prepared by washing three times with PBS to remove residual compounds and ten volumes of ice cold 5% sulfosalicylic acid was added. Worms were manually homogenized on ice using VWR Pellet Mixer Adaptor. The worm suspension was centrifuged at 14000 × g, 4 °C for 10 min and the acid supernatants transferred. An equal volume of ice-cold neutralization buffer (500 mM HEPES, pH 8.0) was added to the acid supernatants.
GSH/GSSG assay was performed by diluting the acid supernatant (5-fold) with ice-cold dilution buffer (250 mM HEPES, pH 7.5). Using white opaque luminescence plate on ice, 25 µl of the diluted worm acid supernatant was added each well in triplicates. Total glutathione lysis reagent and GSSG lysis reagent, which contains alkylating agent N-ethylmaleimide (25 mM) were prepared following manufactures protocol and added to respective wells along with blank for background. Total glutathione lysis reagent or oxidized glutathione lysis reagent (25 µl) was added to respective wells containing worm acid supernatants and the plate was shaken for 5 min. Luciferin generation reagent (LGR) (50 µl) was added to all wells, briefly shaken and incubated at room temperature for 30 min. Luciferin detection reagent (LDR) (100 µl) was added to all wells, briefly shaken and incubated for 15 min at room temperature and the luminescence measured using microplate imager (BioTek Cytation3). GSH/GSSH ratio for DMSO control and compounds were calculated using (Net DMSO total glutathione RFU) – (Net DMSO GSSG RFU)/ (Net DMSO GSSG RFU)/2 and (Net inhibitor total glutathione RFU) – (Net inhibitor GSSG RFU)/ (Net inhibitor GSSG RFU)/2 respectively.

[1] = test system: S. mansoni newly transformed schistosomula (NTS); assay: Schistosomicidal activity ex vivo, NTS (Cell Titer Glo); assay type: cell-based; conditions: for LD50 ex vivo S. mansoni NTS: 24 h exposure, Cell TiterGlo
Description: Oncomelania hupensis subsp. hupensis, Chinese strain, infected with S. japonicum, Chinese strain, and Biomphalaria glabrata, strain NMRI, infected with S. mansoni, strain NMRI, were provided by the NIAID Schistosomiasis Resource Center for distribution through BEI Resources, NIAID, NIH. After infections were patent, snails were exposed to bright light for 1 hr to obtain cercariae. Cercariae were mechanically transformed to schistosomula. Briefly, cercariae were placed on ice for 30 min and then centrifuged at 350 × g for 10 mins. The supernatant was decanted and 2 ml of serum-free M199 medium was added to cercarial pellets and vortexed for 1 min until cercarial tails were detached. NTS were purified by layering on 4 °C Percoll gradient suspension containing Eagle’s minimum essential medium, penicillin-streptomycin (10,000 U per ml penicillin/10,000 U per ml streptomycin), and 1 M HEPES in 0.85% NaCl with cercariae suspension and centrifuged at 500 × g for 15 min. Cercarial pellets were resuspended and washed thrice in serum-free M199 medium and collected at 100 × g for 5 min. NTS (240) were transferred to U-bottom 96 well assay plates containing 200 µl of M199 medium supplemented with 5.5 mM D-glucose, penicillin-streptomycin and 5% heat inactivated fetal bovine serum and incubated at 37 °C in a 5% CO2 incubator overnight.
DMSO formulated compounds were diluted with phenol red free M199 medium or RPMI medium for NTS or juvenile and adult worms, respectively, at <1% DMSO final concentrations. NTS, juvenile and adult worms from overnight cultures were tested against compounds in triplicate. Controls were treated with DMSO alone or 5 µM AF as a positive control in appropriate medium. Worm viability was assessed at 24 or 72 h by measuring ATP content of worms using Cell Titer Glo Assay (Promega) as described. Schistosome viabilities in the presence of the compounds were assessed using this formula: % Viability = Averages of Test / Averages of DMSO Control x 100.

[2] = 6 h preincubation (enzyme + 100 µM NADPH + compound), read-out: S. mansoni TGR inhibition (%) at 66.7 µM
[3] = TGR, 15 minutes pre-incubation, read-out: % inhibition
[4] = TGR, 15 minutes pre-incubation, compound 66.7 µM, read-out: % inhibition
[5] = TGR, 6 hours pre-incubation, read-out: % inhibition
[6] = 1 hr, first data set (r117-133), baseline 55.82
[7] = 1 hr, first data set (r117-133), baseline = 100
[8] = 3 hr, first data set (r117-133), baseline 55.82
[9] = 3 hr, first data set (r117-133), baseline = 100
[10] = Schistosoma mansoni, 72 h, read-out: % viability, S. mansoni NTS
[11] = 1 hr, third data set (r147-159), 0hr 72.45
[12] = 1 hr, third data set (r147-159), 0hr = 100
[13] = 1 hr, third data set, (values given as fraction)
[14] = 3 hr, third data set (r147-159), 0hr 72.45
[15] = 3 hr, third data set (r147-159), 0hr = 100
[16] = 3 hr, third data set, (values given as fraction)
[17] = adult worms ex vivo, 1 hr, relative to 0hr
[18] = adult worms ex vivo, 3 hr, relative to 0hr

Row | SMILES | IC50 (S. mansoni TGR) [µM] | inhibition at 66.7 µM (S. mansoni TGR; [2]) [%] | inhibition at 15 µM (S. mansoni TGR; [3]) [%] | inhibition at 30 µM (S. mansoni TGR; [3]) [%] | inhibition at 66.7 µM (S. mansoni TGR; [4]) [%] | Ratio GSH/GSSG (S. mansoni adult worms; [6]) | % Ratio GSH/GSSG (S. mansoni adult worms; [7]) [%] | Ratio GSH/GSSG (S. mansoni adult worms; [8]) | % Ratio GSH/GSSG (S. mansoni adult worms; [9]) [%] | Decrease (%) in GSH/GSSG ratio (S. mansoni adult worms) | LD50 ex vivo S. mansoni NTS [1] [µM] | LD50 NTS after 72 h exposure [1] [µM] | viability at 1 µM ([1]; Schistosoma mansoni) [%] | viability at 5 µM ([1]; Schistosoma mansoni) [%] | viability at 15 µM ([1]; Schistosoma mansoni) [%] | viability at 30 µM ([1]; Schistosoma mansoni) [%] | viability at 50 µM ([1]; Schistosoma mansoni) [%] | Reduction (%) in GSH/GSSG ratio (S. mansoni adult worms; 1 hr, third data set) [%] | Ratio GSH/GSSG (S. mansoni adult worms; [11]) | % Ratio GSH/GSSG (S. mansoni adult worms; [12]) [%] | also measured
1 | CCc1ccccc1-c1nc(CN[C@@H]2C[C@@H]3C[C@H]([C@H]2C)C3(C)C)c(C)o1 [Compound 2] | > 66.7 | 28.7 | 4.35 | 8.85 | 12.5 | 34.19 | 61.2531 | 28.99 | 51.9337 | 39% | 0.6 ± 0.21 | 0.18 ± 0.007 | 47.9 | 0.373 | 0.0945 | 0.0764 | 0.0707 |  |  |  | inhibition at 15 µM (S. mansoni TGR; [5]): 12.1%; inhibition at 30 µM (S. mansoni TGR; [5]): 14.6%; inhibition at 66.7 µM (S. mansoni TGR; TGR, 6 hours pre-incubation, compound 66.7 µM, read-out: % inhibition): 28.7%; viability at 0.125 µM [1, 10]: 65%; viability at 0.25 µM [1, 10]: 40.4%; viability at 0.5 µM [1, 10]: 3.04%; viability at 1 µM [1, 10]: 0.411%
2 | Cc1oc(-c2ccccc2)nc1CN[C@@H]1C[C@@H]2C[C@H]([C@H]1C)C2(C)C [Compound 3] | > 66.7 | 45 |  |  |  | 29.86 | 53.4928 | 25.64 | 45.9343 | 62% | 4.3 ± 0.20 |  |  |  |  |  |  | 60.3556 | 28.72 | 39.6444 | Reduction (%) in GSH/GSSG ratio (S. mansoni adult worms; [13]): 0.60%; Reduction (%) in GSH/GSSG ratio (S. mansoni adult worms; 3 hr, third data set): 70.1019%; Ratio GSH/GSSG (S. mansoni adult worms; [14]): 21.66; % Ratio GSH/GSSG (S. mansoni adult worms; [15]): 29.8981%; Reduction (%) in GSH/GSSG ratio (S. mansoni adult worms; [16]): 0.70%
3 | Cc1oc(C2CCCCC2)nc1CN[C@@H]1C[C@@H]2C[C@H]([C@H]1C)C2(C)C [Compound 4] | > 66.7 | 68.6 |  |  |  | 28.16 | 50.452 | 18.95 | 33.9548 | 60% | 0.85 ± 0.11 |  |  |  |  |  |  |  |  |  | 
4 | Cc1oc(-c2ccc3ccccc3c2)nc1CNC1CCCCCC1 [Compound 5] |  | 73 |  |  |  |  |  |  |  | 56% | 5.8 ± 0.15 |  |  |  |  |  |  |  |  |  | % Ratio GSH/GSSG (S. mansoni adult worms; adult worms ex vivo, 1 hr): 47.8314%; Reduction (%) in GSH/GSSG ratio (S. mansoni adult worms; [17]): 20.3307%; % Ratio GSH/GSSG (S. mansoni adult worms; adult worms ex vivo, 3 hr): 26.3574%; Reduction (%) in GSH/GSSG ratio (S. mansoni adult worms; [18]): 56.0984%
5 | C#CCN(Cc1nc(-c2ccccc2)oc1C)[C@@H]1C[C@@H]2C[C@H]([C@H]1C)C2(C)C [Compound 6] |  |  |  | 95.8 | 96.4 |  |  |  |  | 32% | 17.5 ± 3.7 | 7.8 ± 2.36 |  | 81.1 | 57 | 30.8 | 26.4 | 3.259 | 70.09 | 96.7414 | inhibition at 1 µM (S. mansoni TGR; TGR, 15 minutes pre-incubation, compound 1 µM): 26.3%; inhibition at 5 µM (S. mansoni TGR; TGR, 15 minutes pre-incubation, compound 5 µM): 74.8%; times more potent against TGR than human TrxR1 (S. mansoni TGR; ratio of IC50s): at least 25 fold; Reduction (%) in GSH/GSSG ratio (S. mansoni adult worms; [13]): 0.0326%; Reduction (%) in GSH/GSSG ratio (S. mansoni adult worms; 3 hr, third data set): 8.6517%; Ratio GSH/GSSG (S. mansoni adult worms; [14]): 66.18; % Ratio GSH/GSSG (S. mansoni adult worms; [15]): 91.3483%; Reduction (%) in GSH/GSSG ratio (S. mansoni adult worms; [16]): 0.09%; viability at 1.25 µM [1, 10]: 86%; viability at 2.5 µM [1, 10]: 73.8%; viability at 5 µM [1, 10]: 55.5%; viability at 10 µM [1, 10]: 45.1%
6 | Cc1oc(C2CCCCC2)nc1C(=O)N[C@@H]1C[C@@H]2C[C@H]([C@H]1C)C2(C)C [Compound 7] | 14.6 ± 1.22 |  | 75.5 | 88.1 | 95.1 |  |  |  |  | 38% and 36.9% | 4.7 ± 0.31 |  | 85.7 | 40.2 |  |  |  |  |  |  | % Ratio GSH/GSSG (S. mansoni adult worms; adult worms ex vivo, 1 hr): 52.5902%; Reduction (%) in GSH/GSSG ratio (S. mansoni adult worms; [17]): 13.6142%; Reduction (%) in GSH/GSSG ratio (S. mansoni adult worms; adult worms ex vivo, 1 hr, relative to 0hr, values given as fraction): 0.1361%; % Ratio GSH/GSSG (S. mansoni adult worms; adult worms ex vivo, 3 hr): 37.7921%; Reduction (%) in GSH/GSSG ratio (S. mansoni adult worms; [18]): 37.9219%; Reduction (%) in GSH/GSSG ratio (S. mansoni adult worms; adult worms ex vivo, 3 hr, relative to 0hr, values given as fraction): 0.3792%; viability at 1.5 µM ([1]; Schistosoma mansoni): 72.1%; viability at 2.5 µM ([1]; Schistosoma mansoni): 47.6%
